For this test, the target named is T1, human neurotensin-2 (NT-2) receptor (Homo sapiens, UniProt O95665).
T1 construct: expressed in transfected cells
Nature of the test: NT2 antagonism assay (intracellular calcium release in CHO or HEK 293 cells recombinantly expressing the receptor). Type of test: cell-based. The following applies: functional in vitro assay; block of agonist (e.g. SR48692)-dependent intracellular calcium release; recombinant human NT-2 receptor. The source says: The activation of the human neurotensin-2 (NT-2) receptor by an agonist, for example SR48692, 2-{[1-(7-chloroquinolin-4-yl)-5-(2,6-dimethoxyphenyl)pyrazol-3-yl]carbonylamino}tricyclo[3.3.3.1 ^3,7]decane-2-carboxylic acid, leads, via stimulation of phospholipase C, to the release of calcium ions from intracellular stores. Antagonists block the activation of the receptor by the agonist and therefore also the agonist-dependent stimulation of phospholipase C and the intracellular calcium release initiated thereby.
A functional in vitro assay may be carried out with stable cell lines, for example CHO or HEK 293, which express the human NT-2 receptor recombinantly. The activity of the receptor is determined via measurement of the intracellular calcium release coupled thereto (in microtiter plates having 96, 384 and 1536 wells/plate). The concentration-dependent action of the NT-2 ligands tested on the receptor activity may be reported as IC50.
(Calcium assays in cells follow changes in intracellular calcium, usually with a dye or a luminescent sensor.)

Each structure is given as a SMILES string.

In general, IC50 refers to the point on the concentration scale where inhibition reaches its midpoint.

T1 sequence (O95665 whole entry): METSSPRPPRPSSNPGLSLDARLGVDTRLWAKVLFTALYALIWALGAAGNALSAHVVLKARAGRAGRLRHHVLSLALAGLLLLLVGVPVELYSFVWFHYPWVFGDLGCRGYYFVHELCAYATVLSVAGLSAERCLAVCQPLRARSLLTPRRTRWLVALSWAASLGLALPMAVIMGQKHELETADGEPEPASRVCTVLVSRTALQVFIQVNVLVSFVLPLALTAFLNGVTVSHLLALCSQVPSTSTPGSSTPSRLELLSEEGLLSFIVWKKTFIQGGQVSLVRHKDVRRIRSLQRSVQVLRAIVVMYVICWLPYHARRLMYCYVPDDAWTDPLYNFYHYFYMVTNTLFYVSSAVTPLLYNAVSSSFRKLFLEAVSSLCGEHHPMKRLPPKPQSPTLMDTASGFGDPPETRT

Consider `NC(=O)COc1ccccc1C1C(C(=O)NCc2cccnc2)c2ccccc2C(=O)N1CCC1=CCCCC1` (single isomer, unassigned) [enantiomer B of example 1, 3,4-trans-3-[2-(2-Carbamoylmethoxy)phenyl]-2-[2-(1-cyclohexen-1-yl)ethyl]-1-oxo-N-(3-pyridinylmethyl)-1,2,3,4-tetrahydro-4-isoquinolinecarboxamide], for which the IC50 was under 200 nM.

These data come from US20050049240A1, “Tetrahydroisochinolines, their production and the use thereof as analgesics” (Bayer HealthCare AG, priority 2001, published 2005).
